Earlier results, collected in US8821904B2, “Topical composition and use thereof for the prophylaxis and the treatment of defects connected to inflammatory dermopathies” (Skinius S.R.L., priority 2010, dated 2014).

Tested on: seborrhoeic eczema
Conditions: topically applied, after four weeks of treatment

For `CC(=O)N1CCN(c2ccc(OCC3COC(Cn4ccnc4)(c4ccc(Cl)cc4Cl)O3)cc2)CC1` (stereo not shown) [ketoconazole], the “Improvement of seborrhoeic eczema, percentage of the cases” value is given as 75%.
